Measurements from patent US20170360073A1, “OPTIMIZED NUTRIENT FATTY ACID COMPOSITION” (priority 2014, published 2017).

Tested on: patients with menopausal symptoms
Test: Case study: menopausal symptoms, transdermal estriol in oil (Example 15)
Type: in vivo, human
Settings: after 15 and 30 days; one patient each: estriol 1 mg oral tablet daily; example 7 oil 0.5 ml twice daily on skin (0.25 mg estriol daily); oral multivitamin and minerals tablet
Experimental: Three patients with menopausal symptoms were taken for study. The patients were divided into three groups. First patient was advised to take orally estriol one mg as tablet daily. Second patient was advised to apply over skin of thighs and abdomen 0.5 ml twice daily medicated optimized nutrient oil prepared by a process as given in example-7 which contains 0.25 mg estriol/ml, so that 0.25 mg estriol is absorbed daily by the body through skin. Third patient was given oral multivitamin and minerals as tablet.

With `C[C@]12CC[C@@H]3c4ccc(O)cc4CC[C@H]3[C@@H]1C[C@@H](O)[C@@H]2O` [estriol] the “hot flushes, mood changes and sleep pattern” value was “improvement in all the three symptoms”.
